In patent publication US11104674B2 (Hoffmann-La Roche Inc., priority 2016, dated 2021) one finds IC50 data, which are given here for six molecules.

As a reminder, the IC50 is the point on the concentration scale where inhibition reaches its midpoint. A higher IC50 goes with a need for much substance.

For one assay, the system named is HBsAg. Put plainly: HBsAg assay (chemiluminescence immunoassay of secreted HBsAg). Particulars: HepG2.2.15 cells, CLIA of culture supernatant. The format is cell-based, HBV. A digest of the protocol: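 HepG2.2.15 cells, in duplicate, treated with three-fold serial compound dilutions (1% DMSO final); secreted HBsAg in supernatant quantified by chemiluminescence immunoassay; IC50 is the concentration reducing HBsAg secretion by 50% versus the DMSO control.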

In the next assay the test system is HBV DNA. Kind of assay: HBV DNA assay (real-time qPCR of extracellular HBV DNA). The format is cell-based. To be noted: Hepatitis B virus, 144 h; Anti HBV DNA production activity in HepG2.2.15 cells; supernatant collected six days after treatment. The method, then:
HepG2.2.15 cells (Acs et al. Proc Natl Acad Sci USA, 84, (1987), 4641-4), a constitutively HBV-expressing cell line were cultured in DMEM+Glutamax-I medium (Invitrogen, Carlsbad, Calif., USA), supplemented with 10% fetal bovine serum (Invitrogen) and G418 (Invitrogen) at a final concentration of 200 mg/L and maintained in 5% CO2 at 37° C.
The assay employs real-time qPCR (TaqMan) to directly measure extracellular HBV DNA copy number in the cell supernatant. HepG2.2.15 cells were plated in 96-well microtiter plates before treatment with complete medium (DMEM, Glutamax, 10% FBS, 1% Penicillin/Streptomycin, 250 μg/mL Genetycin, final DMSO concentration is 1%/o). Only the interior wells were utilized to reduce “edge effects” observed during cell culture, the exterior wells were filled with complete medium to help minimize sample evaporation. The HepG2.2.15 cells were treated 1 h later with various concentrations of a test compound in duplicate (top concentration used at 5 μM, 2 μM or 0.5 μM according to the HBsAg IC50 observed, with ⅓ successive dilutions (total of 10 dilutions). Six days following the initial administration of the test compound, the cell culture supernatant was collected; DNA extraction was performed by automated system (Magnapure) and then used in a real-time qPCR/TaqMan assay to determine HBV DNA copy numbers. Antiviral activity was calculated from the reduction in HBV DNA levels (IC50).
The compounds of the present invention were tested for their capacity to inhibit HBV DNA as described herein.
Background: Real-time PCR tracks product formation cycle by cycle.

Where [1] appears, read: Hepatitis B virus, HepG2.2.15, HBsAg secretion.

Turning to `COC1CCN(c2cc(F)nc(N3CCc4nc(-c5ncccn5)ncc4C3C)c2)C1` (stereo not drawn) [Example 20, 6-[6-fluoro-4-(3-methoxypyrrolidin-1-yl)-2-pyridyl]-5-methyl-2-pyrimidin-2-yl-7,8-dihydro-5H-pyrido[4,3-d]pyrimidine], the figures for the IC50 with HBsAg (setting [1]) and in the assay with HBV DNA were 10 nM and 0.15 nM, respectively.
`CCS(=O)(=O)N1CCN(c2cc(F)nc(N3CCc4nc(-c5ncccn5)ncc4C3C)c2)CC1` (stereo not drawn) [Example 90, 6-[4-(4-ethylsulfonylpiperazin-1-yl)-6-fluoro-2-pyridyl]-5-methyl-2-pyrimidin-2-yl-7,8-dihydro-5H-pyrido[4,3-d]pyrimidine]: the IC50 is 5 nM in the assay with HBsAg (setting [1]) and 1.1 nM with HBV DNA.
Turning to `C[C@@H]1c2cnc(-c3ncccn3)nc2CCN1c1cc(N2CCN(S(C)(=O)=O)CC2)cc(F)n1` [Example 97, (−)-6-[6-Fluoro-4-(4-methylsulfonylpiperazin-1-yl)-2-pyridyl]-5-methyl-2-pyrimidin-2-yl-7,8-dihydro-5H-pyrido[4,3-d]pyrimidine], the values for the IC50 in the assay with HBsAg (HBsAg secretion) and in the assay on HBV DNA were 3 nM and 1.9 nM, respectively.
Take `COC1CN(c2cc(F)nc(N3CCc4nc(-c5ncccn5)ncc4C3C)c2)C1` (stereo not drawn) [Example 112, 6-[6-fluoro-4-(3-methoxyazetidin-1-yl)-2-pyridyl]-5-methyl-2-pyrimidin-2-yl-7,8-dihydro-5H-pyrido[4,3-d]pyrimidine]: the IC50 amounted to 6 nM in the assay with HBsAg (setting [1]) and 0.6 nM in the assay with HBV DNA.
For `CC1c2cnc(-c3ncccn3)nc2CCN1c1cc(N2CCCS2(=O)=O)cc(F)n1` (stereo not drawn) [Example 115, 2-[2-Fluoro-6-(5-methyl-2-pyrimidin-2-yl-7,8-dihydro-5H-pyrido[4,3-d]pyrimidin-6-yl)-4-pyridyl]-1,2-thiazolidine1,1-dioxide] the same measures were 4 nM and 3.2 nM.
On the same counts, the results for `CC1c2cnc(-c3ncccn3)nc2CCN1c1cc(N2CC(F)C2)cc(F)n1` (stereo not drawn) [Example 123, 6-[6-fluoro-4-(3-fluoroazetidin-1-yl)-2-pyridyl]-5-methyl-2-pyrimidin-2-yl-7,8-dihydro-5H-pyrido[4,3-d]pyrimidine] are 12 nM and 0.43 nM.
